Experimental data taken from patent US20080070866A1, “Chemical compounds” (Praecis Pharmaceuticals Incorporated, priority 2006, published 2008).

Biological target: T1, S1P-1 receptor (Homo sapiens, UniProt P21453)
T1 construct: expressed in transfected cells; host or cells: HEK 293 T cells (membrane preparation)
Assay: [33P]sphingosine 1-phosphate binding assay on membranes of transfected HEK 293 T cells
Settings: [33P]S1P binding, receptor taken from context of b294
Experimental: In certain embodiments, the compounds of the invention selective for the S1P-1 receptor as compared to one or more of the other S1P receptors. For example, one set of compounds includes compounds which are selective for the S1P-1 receptor relative to the S1P-3 receptor. […] The EC50 of a compound is determined using the ^35S-GTPγS binding assay, as described in WO 03/061567, the entire contents of which are incorporated herein by reference. […] The IC50 of a compound is determined using the [^33P]sphingosine 1-phosphate binding assay, as described in Davis, M. D. et al., Sphingosine 1-Phosphate Analogs as Receptor Antagonists. J. Biol. Chem. (2005) 280:9833-9841, the entire contents of which are incorporated herein by this reference.
The terms “agonist” or “S1P-1 receptor agonist” as used herein include the compounds described herein which bind to and/or agonize the S1P-1 receptor. […] The compounds' IC50 for the S1P1 receptor can be measured using the binding assays described in Example 13 or those described in WO 03/061567.
The ability of several of the compounds described herein to bind to the S1P-1 or S1P-3 receptor was also tested as follows.
For the membrane preparation, plasmid DNA was transfected into HEK 293 T cells using the FuGENE 6 transfection protocol (publicly available from Roche). […] Protein concentration was determined spectroscopically by Bradford protein assay. […]

T1 sequence (P21453 whole entry): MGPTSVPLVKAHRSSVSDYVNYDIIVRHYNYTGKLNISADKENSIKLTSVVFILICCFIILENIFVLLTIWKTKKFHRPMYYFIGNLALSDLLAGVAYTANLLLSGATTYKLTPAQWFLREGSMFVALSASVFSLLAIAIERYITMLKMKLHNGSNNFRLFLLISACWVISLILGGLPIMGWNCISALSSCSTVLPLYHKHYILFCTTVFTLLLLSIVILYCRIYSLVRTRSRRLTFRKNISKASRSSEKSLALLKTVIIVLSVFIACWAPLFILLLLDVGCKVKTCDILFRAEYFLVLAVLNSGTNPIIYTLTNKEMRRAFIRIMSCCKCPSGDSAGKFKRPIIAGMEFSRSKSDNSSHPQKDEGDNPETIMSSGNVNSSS

## CCCCCOCCOc1ccc(-c2nnc([C@@](C)(N)CO)s2)cc1C(F)(F)F
  IC50: 2.17 nM
